The first assay concerns LDL receptor knockout model.
Assay: not given
The conditions noted are these: dosed prophylactically in a LDL receptor knockout model; cited from earlier work.
Sequence of CXCR3 (A0A2K5UV19 entry or part of it): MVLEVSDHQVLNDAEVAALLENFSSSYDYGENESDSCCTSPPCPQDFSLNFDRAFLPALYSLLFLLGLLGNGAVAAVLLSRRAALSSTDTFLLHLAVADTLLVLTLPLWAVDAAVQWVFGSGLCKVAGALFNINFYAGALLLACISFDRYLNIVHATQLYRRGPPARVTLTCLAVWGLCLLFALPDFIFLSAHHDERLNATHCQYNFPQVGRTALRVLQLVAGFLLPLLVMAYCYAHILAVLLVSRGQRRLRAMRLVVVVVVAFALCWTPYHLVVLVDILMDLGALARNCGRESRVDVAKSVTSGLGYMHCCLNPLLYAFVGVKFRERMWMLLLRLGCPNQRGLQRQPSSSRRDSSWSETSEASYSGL
For `CCOc1ccc(-n2c(C(C)N(Cc3cccnc3)C(=O)Cc3ccc(F)c(C(F)(F)F)c3)nc3ncccc3c2=O)cc1` (centres unmarked) [NBI-74330], the atherosclerotic lesion formation result was “significantly attenuated atherosclerotic lesion formation”.

The next assay addresses CXCR3 (Macaca fascicularis, UniProt A0A2K5UV19). The assay is described as follows: functional cellular assay measuring calcium flux in CXCR3 transfected cells (block of CXCR3/IP-10 interaction). The assay is classed as cell-based, Cyno. As to conditions: IP-10 induced intracellular calcium flux; Cyno-CHO cells stably expressing recombinant CXCR3 and G-alpha-16; IP-10 at EC80; read-out: IC50. In outline: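 Inhibition of IP-10-induced calcium flux at 10 microM final compound, 15 min room-temperature preincubation, with IP-10 at EC80. Cells: CHO stably transfected with cynomolgus CXCR3 plus G-alpha-16, dye-loaded (Ca-4, 2 mM probenecid, HBSS/HEPES pH 7.4) 1 h at 37° C.; fluorescence ex 480/em 540 nm.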
As to `CC1CN(c2ccccc2-c2cnc(N3CCC(O)CC3)nc2)CCN1C(=O)CN1Cc2ccccc2C1=O` (centres unmarked) [2-[2-(4-{2-[2-(4-hydroxypiperidin-1-yl)pyrimidin-5-yl]phenyl}-2-methylpiperazin-1-yl)-2-oxoethyl]-2,3-dihydro-1H-isoindol-1-one], the IC50 (as a rule, the concentration that inhibits the measured activity by half) was 10 nM.

In the case of `COc1cc(NC(=O)c2cc(F)ccc2N2CCN(C(=O)Cn3ccc4cccnc43)[C@H](C)C2)ccn1` [5-fluoro-N-(2-methoxypyridin-4-yl)-2-[(3R)-3-methyl-4-(1H-pyrrolo[2,3-b]pyridin-1-ylacetyl)piperazin-1-yl]benzamide], the IC50 was 9 nM. On the same count and under the same terms, to `Cc1cc(C)n(CC(=O)N2CCN(c3ccc(C(F)(F)F)cc3-c3cnc(N4CCC(O)CC4)nc3)CC2C)n1` (centres unmarked) [2-(3,5-dimethyl-1H-pyrazol-1-yl)-1-(4-{2-[2-(4-hydroxypiperidin-1-yl)pyrimidin-5-yl]-4-(trifluoromethyl)phenyl}-2-methylpiperazin-1-yl)ethanone] belongs 8 nM; to `CC1CN(c2ccccc2-c2cnc(N3CCC(O)CC3)nc2)CCN1C(=O)Cn1ccc2ccncc21` (centres unmarked) [1-(4-{2-[2-(4-hydroxypiperidin-1-yl)pyrimidin-5-yl]phenyl}-2-methylpiperazin-1-yl)-2-(1H-pyrrolo[2,3-c]pyridin-1-yl)ethanone], 8 nM.

For the compound `Cc1cc(C)n(CC(=O)N2CCN(c3ccccc3-c3cnc(N4CC(C)CC(C)C4)nc3)CC2)n1` (centres unmarked) [1-(4-{2-[2-(3,5-Dimethyl-piperidin-1-yl)-pyrimidin-5-yl]-phenyl}-piperazin-1-yl)-2-(3,5-dimethyl-pyrazol-1-yl)-ethanone], the IC50 is 14 nM.

As to `COc1ncc(-c2ccccc2N2CCN(C(=O)Cn3ccc4ccccc43)CC2)cn1` [2-Indol-1-yl-1-{4-[2-(2-methoxy-pyrimidin-5-yl)-phenyl]-piperazin-1-yl}-ethanone], the IC50 came out at 44 nM.

Take `C[C@H]1CN(c2ccc(F)cc2C(=O)Nc2nc3c(s2)CN(C)CC3)CCN1C(=O)Cn1ccc2cccnc21` [5-fluoro-2-[(3S)-3-methyl-4-(1H-pyrrolo[2,3-b]pyridin-1-ylacetyl)piperazin-1-yl]-N-(5-methyl-4,5,6,7-tetrahydro[1,3]thiazolo[5,4-c]pyridin-2-yl)benzamide]: the half-inhibitory concentration (IC50) is 17 nM.

For the compound `COc1ncc(-c2ccccc2N2CCN(C(=O)Cn3ccc4c(Cl)ncnc43)CC2)cn1` [2-(4-Chloro-pyrrolo[2,3-d]pyrimidin-7-yl)-1-{4-[2-(2-methoxy-pyrimidin-5-yl)-phenyl]-piperazin-1-yl}-ethanone], the concentration for half-maximal inhibition (IC50) worked out at 48 nM.

Consider `COc1ncc(-c2cc(F)ccc2N2CCN(C(=O)Cn3ccc4cccnc43)CC2)cn1` [1-{4-[4-fluoro-2-(2-methoxypyrimidin-5-yl)phenyl]piperazin-1-yl}-2-(1H-pyrrolo[2,3-b]pyridin-1-yl)ethanone], for which the IC50 was 11 nM.

Consider `CNc1ncc(-c2cc(Cl)ccc2N2CCN(C(=O)Cn3ccc4cccnc43)CC2)cn1` [1-{4-[4-Chloro-2-(2-methylamino-pyrimidin-5-yl)-phenyl]-piperazin-1-yl}-2-pyrrolo[2,3-b]pyridin-1-yl-ethanone], for which the concentration for half-maximal inhibition (IC50) was found to be 6 nM. On the same count and under the same terms, to `CNc1ncc(-c2ccccc2N2CCN(C(=O)Cn3ccc4cccnc43)CC2)cn1` [1-{4-[2-(2-Methylamino-pyrimidin-5-yl)-phenyl]-piperazin-1-yl}-2-pyrrolo[2,3-b]pyridin-1-yl-ethanone] belongs 7 nM; to `Cc1cc(C)n(CC(=O)N2CCN(c3ccccc3-c3cnc(N4CCCC4)nc3)CC2)n1` [2-(3,5-Dimethyl-pyrazol-1-yl)-1-{4-[2-(2-pyrrolidin-1-yl-pyrimidin-5-yl)-phenyl]-piperazin-1-yl}-ethanone], 7 nM. For the compound `N#Cc1ccc(-c2ccccc2N2CCN(C(=O)CNc3nccs3)CC2)cn1` [5-(2-{4-[2-(Thiazol-2-ylamino)-acetyl]-piperazin-1-yl}-phenyl)-pyridine-2-carbonitrile], the IC50 turned out to be 47 nM. Still for that read-out and setting: to `CC1CN(c2ccc(C(F)(F)F)cc2-c2cnc(S(C)(=O)=O)nc2)CCN1C(=O)CN1CCCCC1=O` (centres unmarked) [1-[2-(2-methyl-4-{2-[2-(methylsulfonyl)pyrimidin-5-yl]-4-(trifluoromethyl)phenyl}piperazin-1-yl)-2-oxoethyl]piperidin-2-one] belongs 310 nM; to `Cc1cc(C)n(CC(=O)N2CCN(c3ccccc3-c3cnc(N4CCCC(C(F)(F)F)C4)nc3)CC2)n1` (centres unmarked) [2-(3,5-Dimethyl-pyrazol-1-yl)-1-(4-{2-[2-(3-trifluoromethyl-piperidin-1-yl)-pyrimidin-5-yl]-phenyl}-piperazin-1-yl)-ethanone], 12 nM; to `COc1cc(NC(=O)c2cc(F)ccc2N2CCN(C(=O)CN3Cc4ccccc4C3=O)[C@H](C)C2)ccn1` [5-fluoro-N-(2-methoxypyridin-4-yl)-2-{(3R)-3-methyl-4-[(1-oxo-1,3-dihydro-2H-isoindol-2-yl)acetyl]piperazin-1-yl}benzamide], 7 nM.

Values taken from patent publication US8450317B2, “CXCR3 receptor antagonists” (Boehringer Ingelheim International GmbH, priority 2009, dated 2013).
